The experiment addresses T1, PE-labeled human PD-L1-Ig binding to Jurkat cell line over-expressing human PD-1 (Jurkat-PD-1) (Homo sapiens, UniProt Q15116).
T1 construct: expressed in transfected cells; host or cells: Jurkat
The experiment can be described thus: Jurkat-PD-1 Cell Binding High-Content Screening Assay (CBA): Method 1. The conditions noted are these: Jurkat-hPD-1 cells, PE-labeled PD-L1-Ig 20 nM final; read-out: Jurkat HPDL1 PD1 IC50 (uM) (Method 1).

Numbered stars: 1 amine (or outer) side, 2 acyl side, 3 side chain; on linkers, the order of the positions; unused ones are H or OH. Bridge positions count the residues as written; N and C are the ends. Square brackets hold non-standard residues; d marks the D form. Peptide text beside a SMILES is read from it. * marks the point of attachment. ξ: configuration not given here. X39 = COc1cccc(-c2ccc(C[C@H](N[*:1])C(=O)[*:2])cc2)c1; Tyr(3,5-Br2) = N[C@@H](Cc1cc(Br)c(O)c(Br)c1)C(=O)O; Phe(4-CONH2) = NC(=O)c1ccc(C[C@H](N)C(=O)O)cc1; Phe(4-COOH) = N[C@@H](Cc1ccc(C(=O)O)cc1)C(=O)O; Bip = N[C@@H](Cc1ccc(-c2ccccc2)cc1)C(=O)O; Phe(3-Me) = Cc1cccc(C[C@H](N)C(=O)O)c1; Val(3-OH) = CC(C)(O)[C@H](N)C(=O)O; 2Pal = N[C@@H](Cc1ccccn1)C(=O)O; 3Pal = N[C@@H](Cc1cccnc1)C(=O)O; 4Pal = N[C@@H](Cc1ccncc1)C(=O)O; Cha = N[C@@H](CC1CCCCC1)C(=O)O; Cit = NC(=O)NCCC[C@H](N)C(=O)O; Ile(3ξ) = CCC(C)[C@H](N)C(=O)O; Thr(3ξ) = CC(O)[C@H](N)C(=O)O; hSer = N[C@@H](CCO)C(=O)O; Carboxymethyl = O=C(O)C*; NMeA = CN[C@@H](C)C(=O)O; Nle = CCCC[C@H](N)C(=O)O; Dab = NCC[C@H](N)C(=O)O; Dap = NC[C@H](N)C(=O)O

T1 sequence (Q15116 25-288): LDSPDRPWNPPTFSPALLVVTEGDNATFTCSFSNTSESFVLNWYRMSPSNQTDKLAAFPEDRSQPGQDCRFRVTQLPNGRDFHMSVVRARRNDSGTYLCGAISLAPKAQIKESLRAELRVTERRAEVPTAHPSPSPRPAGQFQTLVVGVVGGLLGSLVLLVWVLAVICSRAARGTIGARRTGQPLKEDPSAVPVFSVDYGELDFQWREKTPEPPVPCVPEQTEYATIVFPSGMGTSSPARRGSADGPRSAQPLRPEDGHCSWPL

Consider `CCC(C)[C@@H]1NC(=O)[C@H](Cc2ccc(-c3ccccc3)cc2)NC(=O)[C@H](CC(C)C)NC(=O)[C@H](Cc2c[nH]c3ccccc23)NC(=O)[C@H](CC(=O)O)NC(=O)[C@H](Cc2ccc(C(=O)O)cc2)NC(=O)[C@H](Cc2ccc(OCC(=O)O)cc2)NC(=O)CSC[C@@H](C(=O)N[C@@H](CC(N)=O)C(N)=O)NC(=O)[C@H](CO)NC(=O)[C@H](C(C)C)NC(=O)[C@H](CC2CCCCC2)NC(=O)[C@H](CCN)NC(=O)[C@@H](CC(C)C)NC(=O)[C@H](C)N(C)C1=O` (stereo partly drawn) [Compound 1923] ({CH2CO}-Y(Carboxymethyl)[Phe(4-COOH)]DWL[Bip][Ile(3ξ)][NMeA][dL][Dab][Cha]VSCN-NH2; thioether N-14), for which the IC50 – broadly, the concentration that gives 50% inhibition – amounted to 0.02 µM. Next, `CC(C)C[C@@H]1NC(=O)CSC[C@@H](C(=O)N[C@@H](C)C(N)=O)NC(=O)[C@H]([C@@H](C)O)NC(=O)[C@H](C(C)C)NC(=O)[C@H](CC(C)C)NC(=O)[C@H](CCCNC(=N)N)NC(=O)[C@@H](CC(C)C)NC(=O)[C@H](C)N(C)C(=O)[C@H](CCCNC(=N)N)NC(=O)[C@H](Cc2ccc(-c3ccccc3)cc2)NC(=O)[C@H](C(C)C)NC(=O)[C@H](Cc2c[nH]c3ccccc23)NC(=O)[C@H](CC(=O)O)NC(=O)[C@H](Cc2ccc(O)cc2)NC1=O` [Compound 1050] ({CH2CO}-LYDWV[Bip]R[NMeA][dL]RLVTCA-NH2; thioether N-14): 0.11 µM. Consider `CC(C)C[C@@H]1NC(=O)[C@H](CCO)NC(=O)[C@@H](CC(C)C)NC(=O)[C@H](C)N(C)C(=O)[C@H](CCCNC(N)=O)NC(=O)[C@H](Cc2ccc(-c3ccccc3)cc2)NC(=O)[C@H](C(C)C)NC(=O)[C@H](Cc2c[nH]c3ccccc23)NC(=O)[C@H](CC(=O)O)NC(=O)[C@H](Cc2ccc(O)cc2)NC(=O)[C@H](Cc2ccccc2)NC(=O)CSC[C@@H](C(=O)N[C@@H](C)C(N)=O)NC(=O)[C@H](C(C)O)NC(=O)[C@H](C(C)C)NC1=O` (stereo partly drawn) [Compound 2032] ({CH2CO}-FYDWV[Bip][Cit][NMeA][dL][hSer]LV[Thr(3ξ)]CA-NH2; thioether N-14), for which the IC50 worked out at 0.05 µM.

Turning to `CCCC[C@@H]1NC(=O)[C@H](CCCNC(=N)N)NC(=O)[C@@H](CC(C)C)NC(=O)[C@H](C)N(C)C(=O)[C@H](CCCNC(N)=O)NC(=O)[C@H](Cc2ccc(-c3ccccc3)cc2)NC(=O)[C@H](C(C)C)NC(=O)[C@H](Cc2c[nH]c3ccccc23)NC(=O)[C@H](CC(=O)O)NC(=O)[C@H](Cc2ccc(O)cc2)NC(=O)[C@H](CC(N)=O)NC(=O)CSC[C@@H](C(=O)N[C@@H](C)C(N)=O)NC(=O)[C@H]([C@@H](C)O)NC(=O)[C@H](C(C)C)NC1=O` [Compound 1285] ({CH2CO}-NYDWV[Bip][Cit][NMeA][dL]R[Nle]VTCA-NH2; thioether N-14), the IC50 was determined as 0.05 µM. Regarding `CC(C)C[C@@H]1NC(=O)[C@H](CCN)NC(=O)[C@@H](CC(C)C)NC(=O)[C@H](C)N(C)C(=O)[C@H](CCCNC(N)=O)NC(=O)[C@H](Cc2ccc(-c3ccccc3)cc2)NC(=O)[C@H](C(C)C)NC(=O)[C@H](Cc2c[nH]c3ccccc23)NC(=O)[C@H](CC(=O)O)NC(=O)[C@H](Cc2ccc(C(=O)O)cc2)NC(=O)[C@H](Cc2ccccn2)NC(=O)CSC[C@@H](C(=O)N[C@@H](C)C(N)=O)NC(=O)[C@H]([C@@H](C)O)NC(=O)[C@H](C(C)C)NC1=O` [Compound 1330] ({CH2CO}-[2Pal][Phe(4-COOH)]DWV[Bip][Cit][NMeA][dL][Dab]LVTCA-NH2; thioether N-14), the IC50 was found to be 0.04 µM. As to `CC(C)C[C@@H]1NC(=O)[C@H](CCCNC(=N)N)NC(=O)[C@@H](CC(C)C)NC(=O)[C@H](C)N(C)C(=O)[C@H](CCCNC(=N)N)NC(=O)[C@H](Cc2ccc(-c3ccccc3)cc2)NC(=O)[C@H](C(C)C)NC(=O)[C@H](Cc2c[nH]c3ccccc23)NC(=O)[C@H](CC(=O)O)NC(=O)[C@H](Cc2cc(Br)c(O)c(Br)c2)NC(=O)[C@H](Cc2ccccc2)NC(=O)CSC[C@@H](C(=O)N[C@@H](C)C(N)=O)NC(=O)[C@H]([C@@H](C)O)NC(=O)[C@H](C(C)C)NC1=O` [Compound 1092] ({CH2CO}-F[Tyr(3,5-Br2)]DWV[Bip]R[NMeA][dL]RLVTCA-NH2; thioether N-14), the IC50 came out at 0.42 µM. As for `CC(C)C[C@@H]1NC(=O)[C@H](CCN)NC(=O)[C@@H](CC(C)C)NC(=O)[C@H](C)N(C)C(=O)[C@H](C(C)C)NC(=O)[C@H](Cc2ccc(-c3ccccc3)cc2)NC(=O)[C@H](C(C)C)NC(=O)[C@H](Cc2c[nH]c3ccccc23)NC(=O)[C@H](CC(=O)O)NC(=O)[C@H](Cc2ccc(O)cc2)NC(=O)[C@H](CCN)NC(=O)CSC[C@@H](C(=O)N[C@@H](C)C(N)=O)NC(=O)[C@H]([C@@H](C)O)NC(=O)[C@H](C(C)C)NC1=O` [Compound 1361] ({CH2CO}-[Dab]YDWV[Bip]V[NMeA][dL][Dab]LVTCA-NH2; thioether N-14), the figure is 0.01 µM; as for `CC(C)C[C@@H]1NC(=O)[C@H](CCN)NC(=O)[C@@H](CC(C)C)NC(=O)[C@H](C)N(C)C(=O)[C@H](CCC(=O)O)NC(=O)[C@H](Cc2ccc(-c3ccccc3)cc2)NC(=O)[C@H](C(C)C)NC(=O)[C@H](Cc2c[nH]c3ccccc23)NC(=O)[C@H](CC(=O)O)NC(=O)[C@H](Cc2ccc(OCC(=O)O)cc2)NC(=O)[C@H](Cc2ccncc2)NC(=O)CSC[C@@H](C(=O)N[C@@H](C)C(N)=O)NC(=O)[C@H](CO)NC(=O)[C@H](C(C)C)NC1=O` [Compound 1575] ({CH2CO}-[4Pal]Y(Carboxymethyl)DWV[Bip]E[NMeA][dL][Dab]LVSCA-NH2; thioether N-14), 0.05 µM; as for `CCCC[C@@H]1NC(=O)[C@H](CCCNC(=N)N)NC(=O)[C@@H](CC(C)C)NC(=O)[C@H](C)N(C)C(=O)[C@H](C(C)C)NC(=O)[C@H](Cc2ccc(-c3ccccc3)cc2)NC(=O)[C@H](C(C)C)NC(=O)[C@H](Cc2c[nH]c3ccccc23)NC(=O)[C@H](CC(=O)O)NC(=O)[C@H](Cc2ccc(O)cc2)NC(=O)[C@H](CN)NC(=O)CSC[C@@H](C(=O)N[C@@H](C)C(N)=O)NC(=O)[C@H]([C@@H](C)O)NC(=O)[C@H](C(C)C)NC1=O` [Compound 1500] ({CH2CO}-[Dap]YDWV[Bip]V[NMeA][dL]R[Nle]VTCA-NH2; thioether N-14), 0.08 µM.

Regarding `CC(C)C[C@@H]1NC(=O)[C@H](CCN)NC(=O)[C@@H](CC(C)C)NC(=O)[C@H](C)N(C)C(=O)[C@H](Cc2cnc[nH]2)NC(=O)[C@H](Cc2ccc(-c3ccccc3)cc2)NC(=O)[C@H](C(C)C)NC(=O)[C@H](Cc2c[nH]c3ccccc23)NC(=O)[C@H](CC(=O)O)NC(=O)[C@H](Cc2ccc(O)cc2)NC(=O)[C@H](Cc2cccnc2)NC(=O)CSC[C@@H](C(=O)N[C@@H](C)C(N)=O)NC(=O)[C@H]([C@@H](C)O)NC(=O)[C@H](C(C)C)NC1=O` [Compound 1374] ({CH2CO}-[3Pal]YDWV[Bip]H[NMeA][dL][Dab]LVTCA-NH2; thioether N-14), the IC50 stood at 0.04 µM.

Regarding `CCC(C)[C@@H]1NC(=O)[C@H](Cc2ccc(-c3ccccc3)cc2)NC(=O)[C@H](Cc2ccc(O)cc2)NC(=O)[C@H](Cc2cccc(C)c2)NC(=O)[C@H](CC(=O)O)NC(=O)[C@H](Cc2ccc(OCC(=O)O)cc2)NC(=O)[C@H](C(C)O)NC(=O)CSC[C@@H](C(=O)N[C@@H](CO)C(N)=O)NC(=O)[C@H](C(C)O)NC(=O)[C@H](C(C)C)NC(=O)[C@H](CC2CCCCC2)NC(=O)[C@H](CCN)NC(=O)[C@@H](CC(C)C)NC(=O)[C@H](C)N(C)C1=O` (stereo partly drawn) [Compound 2121] ({CH2CO}-[Thr(3ξ)]Y(Carboxymethyl)D[Phe(3-Me)]Y[Bip][Ile(3ξ)][NMeA][dL][Dab][Cha]V[Thr(3ξ)]CS-NH2; thioether N-14), the IC50 turned out to be 0.04 µM. Next, `CC(C)C[C@@H]1NC(=O)[C@H](CCCNC(=N)N)NC(=O)[C@@H](CC(C)C)NC(=O)[C@H](C)N(C)C(=O)[C@H](CCCNC(=N)N)NC(=O)[C@H](Cc2ccc(-c3ccccc3)cc2)NC(=O)[C@H](C(C)C)NC(=O)[C@H](Cc2c[nH]c3ccccc23)NC(=O)[C@H](CC(=O)O)NC(=O)[C@H](Cc2ccc(C(N)=O)cc2)NC(=O)[C@H](Cc2ccccc2)NC(=O)CSC[C@@H](C(=O)N[C@@H](C)C(N)=O)NC(=O)[C@H]([C@@H](C)O)NC(=O)[C@H](C(C)C)NC1=O` [Compound 1099] ({CH2CO}-F[Phe(4-CONH2)]DWV[Bip]R[NMeA][dL]RLVTCA-NH2; thioether N-14): 0.03 µM. Take `Cc1cccc(C[C@@H]2NC(=O)[C@H](CC(=O)O)NC(=O)[C@H](Cc3ccc(OCC(=O)O)cc3)NC(=O)[C@H](C(C)O)NC(=O)CSC[C@@H](C(=O)N[C@@H](CCN)C(N)=O)NC(=O)[C@H](Cc3cnc[nH]3)NC(=O)[C@H](C(C)(C)O)NC(=O)[C@H](CC3CCCCC3)NC(=O)[C@H](CCN)NC(=O)[C@@H](CC(C)C)NC(=O)[C@H](C)N(C)C(=O)[C@H](Cc3ccc(C(N)=O)cc3)NC(=O)[C@H](Cc3ccc(-c4ccccc4)cc3)NC(=O)[C@H](Cc3ccc(OCC(=O)O)cc3)NC2=O)c1` (stereo partly drawn) [Compound 2158] ({CH2CO}-[Thr(3ξ)]Y(Carboxymethyl)D[Phe(3-Me)]Y(Carboxymethyl)[Bip][Phe(4-CONH2)][NMeA][dL][Dab][Cha][Val(3-OH)]HC[Dab]-NH2; thioether N-14): the IC50 came out at 0.02 µM.

For `COc1cccc(-c2ccc(C[C@@H]3NC(=O)[C@H](CC(C)C)NC(=O)[C@H](Cc4c[nH]c5ccccc45)NC(=O)[C@H](CC(=O)O)NC(=O)[C@H](Cc4ccc(O)cc4)NC(=O)[C@H](Cc4ccccc4)NC(=O)CSC[C@@H](C(=O)N[C@@H](C)C(N)=O)NC(=O)[C@H](CO)NC(=O)[C@H](C(C)C)NC(=O)[C@H](CC(C)C)NC(=O)[C@H](CC(N)=O)NC(=O)[C@@H](C)NC(=O)[C@H](C)N(C)C(=O)[C@H](C(C)C)NC3=O)cc2)c1` [Compound 1798] ({CH2CO}-FYDWL[X39]V[NMeA][dA]NLVSCA-NH2; thioether N-14), the IC50 amounted to 0.17 µM. In the case of `Cc1cccc(C[C@@H]2NC(=O)[C@H](CC(=O)O)NC(=O)[C@H](Cc3ccc(C(=O)O)cc3)NC(=O)[C@H](CN)NC(=O)CSC[C@@H](C(=O)N[C@@H](C)C(N)=O)NC(=O)[C@H]([C@@H](C)O)NC(=O)[C@H](C(C)C)NC(=O)[C@H](CC(C)C)NC(=O)[C@H](CCN)NC(=O)[C@@H](CC(C)C)NC(=O)[C@H](C)N(C)C(=O)[C@H](CCCNC(N)=O)NC(=O)[C@H](Cc3ccc(-c4ccccc4)cc3)NC(=O)[C@H](C(C)C)NC2=O)c1` [Compound 1429] ({CH2CO}-[Dap][Phe(4-COOH)]D[Phe(3-Me)]V[Bip][Cit][NMeA][dL][Dab]LVTCA-NH2; thioether N-14), the IC50 stood at 0.01 µM.

These data come from US20240409585A1, “MACROCYCLIC IMMUNOMODULATORS” (priority 2021, published 2024).
